Earlier results in US6537523B1, “Diagnosis and treatment of cancer having clonal macrophage involvement” (The Regents of the University of California, priority 1994, dated 2003).

Test system: HIV antigens in human blood cells including macrophages

Trichosanthin
expression of HIV antigens: inhibit expression of HIV antigens
